# According to patent US20050004016A1, “Method of obtaining peptides with tissue-specific activity and pharmaceutical compositions on their basis” (priority 2000, published 2005):
# Residues, ends and D or L forms follow the SMILES beside them.
# Legend:
# [1] = test system: monolayer hepatocyte culture; test: Intensity of protein synthesis ([3H]-leucin inclusion) in monolayer hepatocyte culture; format: cell-based, rats; settings: 0.005 μg/ml, 4 hours
# Method: Intensity of the protein synthesis was investigated in the hepatocyte culture of rats aged 4, 8 and 18 months.
# To isolate hepatocytes, rat liver was perfused with calcium-free Hanks' solution added 0.5 mM of EDTA and then 0.05% collagenase solution in Medium 199. The cellular suspension was filtered out and centrifuged. The hepatocyte suspension in the concentration of 5×10^5 was introduced into Petri's dishes, their bottoms surfaced with collagen-covered glass. Applied Medium 199 contained no bovine serum but was added 0.2 mg/ml of albumen and 5 μg/ml of insulin. The dishes with glass-covered bottoms were placed in a thermostat at 37° C., aerated and added CO2. […]
# Protein synthesis was assessed by [^3H]-leucin inclusion regarding the standard errors for a free marked leucin pull in the same culture. […] Radioactivity of the pull of free intracellular leucin and cellular proteins (in hyamine fraction) after adding the corresponding scintillators was measured on a radioactivity counter SL-30.
# The intensity of protein synthesis was calculated by the formula Icorr=Ii×Pav/Pi(cpm), where
# Icorr—inclusion of leucin regarding the standard errors of free leucin pull, Ii—measured radioactivity of the proteins for i-culture, Pav—mean radioactivity of proteins and pull for the cultures studied in this experiment, Pi—total radioactivity of proteins and pull of the same culture. […]
# [2] = test system: liver explants; test: Growth of liver explants (square index, organotypic culture); format: cell-based, chicken embryos; settings: 20 ng/ml
# Method: The experiments were carried out in 53 liver fragments of 10-11 days old chicken embryos. Nutrient medium for the explant cultivation consisted of 35% of Eagle's solution, 25% of foetal calf serum, 35% of Hank's solution and 5% of chicken embryonic extract. The mixture is added glucose (0.6%), insulin (0.5 unit/ml), penicillin (100 unit/m) and glutamine (2 mM). […] Lys-Glu-Asp-Ala tetrapeptide was added to the experimental medium in the concentrations of 2, 10, 20, 50, 100, 200 and 400 ng/mL Square index (SI) was taken for a biological activity criterion and calculated as a correlation of the total explant square including the growth zone to the initial square of a liver fragment. The SI values were expressed percent, the control SI value taken for 100%.
# [3] = test system: cerebral cortex explants; test: Growth of cerebral cortex explants (square index, organotypic culture); format: cell-based, chicken embryos
# Method: The experiments are conducted on 73 fragments of cerebral cortex explants of 10-11-days' chicken embryos. The nutrient medium for cultivation consisted of 35% Eagle's solution, 25% calf foetal serum, 35% Hanks' solution, 5% chicken embryonic extract. The medium was also added glucose (0.6%), insulin (0.5 unit/ml), penicillin (100 unit/ml), glutamine (2 mM). Fragments of the cerebral cortex were placed in this medium and cultivated in Petri's dishes in a thermostat at 36.7° C. for 48 hours. The experimental medium is was added Ala-Glu-Asp-Pro tetrapeptide and Cortexin in the concentrations of 2, 10, 20, 50, 100, 200, 400 ng/ml. Square index (SI) was considered the criterion of biological activity. It was counted as the ratio between the total explant square including the growth zone and the initial square of the cerebral cortex fragment and. Significance of differences between the average values of SI was assessed by Student's t-criterion. SI values were expressed per cent, the control SI value being taken for 100%.
# The growth zone of the control cerebral cortex explants included short neurites, migrating glia and fibroblast cells.
# Immediate influence of the substances upon the cerebral cortex fragments was investigated in the following experimental series.
# [4] = test system: brain subcortical structure explants; test: Growth of brain subcortical structure explants (square index, organotypic culture); format: cell-based, chicken embryos; settings: 100 ng/ml, control SI = 100%
# Method: Experiments were conducted on 69 fragments of brain subcortical structures of 10-11-days' old chicken embryos. The nutrient medium for cultivation consisted of 35% Eagle's solution, 25% calf foetal serum, 35% Hanks' solution, 5% chicken embryonic extract. The medium was also added glucose (0.6%), insulin (0.5 unit/ml), penicillin (100 unit/ml), glutamine (2 mM). Fragments of the brain subcortical structures were placed in this medium and cultivated in Petri's dishes in a thermostat at 36.7° C. for 48 hours. The experimental medium was added Ala-Glu-Asp-Gly tetrapeptide and Epithalamin in the concentrations of 2, 10, 20, 50, 100, 200, 400 ng/ml. Square index (SI) considered the criterion of biological activity. It was counted as the ratio between the total explant square including the growth zone and the initial square of the subcortical structure fragment Significance of differences between the average values of SI was assessed by Student's t-criterion. ST values were expressed percent, the control SI value being taken for 100%.
# The growth zone of the control explants of the brain, subcortical structures included short neurites, migrating glia and fibroblast-resembling cells.
# Immediate influence of the substances upon the fragments of the brain subcortical structures was investigated in the following experimental series.
compound,measurement,setting,value
"C[C@H](NC(=O)[C@H](CC(=O)O)NC(=O)[C@H](CCC(=O)O)NC(=O)[C@@H](N)CCCCN)C(=O)O [Lys-Glu-Asp-Ala tetrapeptide, lysyl-glutamyl-aspartyl-alanine] (H-KEDA-OH)",amplitude of synthesis oscillations,[1]; hepatocytes of older rats,increased considerably
same,level of protein synthesis in hepatocytes,"[1]; hepatocytes of rats aged 4, 8 and 18 months, strongest effect in cells of older animals",raised the level of protein synthesis
same,effect on liver explants by longer terms of cultivation,[2]; cultivation up to 7 days,analogous stimulating effect
same,increase in the explant SI as compared to the control value,"[2]; third day of the cultivation, control SI = 100%",24%
"C[C@H](N)C(=O)N[C@@H](CCC(=O)O)C(=O)N[C@@H](CC(=O)O)C(=O)N1CCC[C@H]1C(=O)O [Ala-Glu-Asp-Pro tetrapeptide, L-alanyl-L-glutamyl-L-aspartyl-L-proline] (H-AEDP-OH)",SI of the experimental explants higher than that of the control cerebral cortex fragments,"[3]; 20 ng/ml, control SI = 100%",40±7%
same,concentration stimulating the fragments of cultivated cerebral cortex (threshold of effective concentrations),[3]; tested 2-400 ng/ml,20 ng/mL
"C[C@H](N)C(=O)N[C@@H](CCC(=O)O)C(=O)N[C@@H](CC(=O)O)C(=O)NCC(=O)O [Ala-Glu-Asp-Gly tetrapeptide, alanyl-glutamyl-aspartyl-glycine] (H-AEDG-OH)",SI of the experimental explants higher than that of the control fragments,[4],24%
